Our source for the Rate values is ChEMBL document CHEMBL1121596, “Metabolic beta-hydroxylation and N-oxidation of N'-nitrosonornicotine” (J Med Chem, 1980).

The species named for the data set is Rattus norvegicus. Briefly: Rate of formation of compound by F-344 rat liver microsomes. It is filed as ADME.

`O=NN1CC(O)CC1c1cccnc1` (stereo not given) displayed a Rate of under 0.01 nmol/min/mg.
With `OC1CCC(c2cccnc2)O1` (stereo not given) the figure was 0.76 nmol/min/mg; with `O=NN1CCCC1c1ccc[n+]([O-])c1` (stereo not given), 0.57 nmol/min/mg; with `O=C(CCCO)c1cccnc1`, 0.4 nmol/min/mg.
The figure for `O=NN1CCC(O)C1c1cccnc1` (stereo not given) is under 0.01 nmol/min/mg.
